Target: Mitogen-activated protein kinase 1 (Homo sapiens, UniProt P28482)
Experiment: Kinase Assay (New)
Settings: pH 7.5
Protocol: Compound dilution series are prepared in 100% DMSO. ERK2 is preincubated with compounds for 30 minutes at ambient temperature. Reaction is initiated by addition of a substrate cocktail of ERKtide peptide and ATP and is allowed to proceed for 2-3 hours at ambient temperature. […] Terminated reactions are read, after overnight incubation in the dark, on an EnVision Multilabel Plate Reader (PerkinElmer, Waltham, Mass.), with excitation and emission wavelengths set to 680 nm and 570 nm, respectively. IC50 values are determined using a four-parameter fit.

Sequence of Mitogen-activated protein kinase 1 (P28482 whole entry): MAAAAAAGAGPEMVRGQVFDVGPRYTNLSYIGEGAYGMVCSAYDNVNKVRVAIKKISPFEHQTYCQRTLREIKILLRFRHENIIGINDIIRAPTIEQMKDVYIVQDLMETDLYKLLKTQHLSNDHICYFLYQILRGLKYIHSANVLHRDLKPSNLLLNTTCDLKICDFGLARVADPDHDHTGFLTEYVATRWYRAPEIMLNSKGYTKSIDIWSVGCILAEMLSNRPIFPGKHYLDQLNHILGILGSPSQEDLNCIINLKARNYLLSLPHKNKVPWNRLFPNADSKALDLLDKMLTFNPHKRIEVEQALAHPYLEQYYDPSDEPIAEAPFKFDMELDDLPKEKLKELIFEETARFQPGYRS

Cc1nn(C)cc1-c1cnc(N)c(-c2ccc(C(=O)NCc3cccc(S(C)(=O)=O)c3)c(F)c2)n1 [US9242996, 145]
IC50: 7.33 nM
